Patent US20030207813A1, “Retroviral protease inhibitor combinations” (priority 1995, published 2003)
Like-named read-outs stand apart in the source and are kept apart here.

Key:
NL4(538/P7-AG) = test: Viral isolate resistance assay per Markowitz et al., NL4(538/P7-AG); format: cell-based, HIV-1; conditions: Human immunodeficiency virus 1; Table 10; NL4(P22-538) selected against Example 12, 7 passages
From the text: (§1) RF represents the HIV-1 strain HIV-LRF and RFR represents a mixture of resistant strains obtained by selection of RF against the compound of Example 1. RFR comprises a mixture of viral strains having protease genotypes of G48V (14/40 clones); G48V, V82A (18/40 clones); G48V, L90S (2/40 clones); G48V, 154T, V82A (1/40 clones); G48M (1/40 clones); G48V, Q61H (1/40 clones); V13I, G48V (1/40 clones); G48V, F53L, V82A (1/40 clones); and G48V, V82A, C95Y (1/40 clones). RFR2 represents a mixture of resistant strains obtained by cloning RFR by three rounds of growth at limiting dilution. RFR2 comprises a mixture of viral strains having protease genotypes of G48V, V82A (13/15 clones); G17E, G48V, V82A (1/15 clones); and G48V, V82A, N37D, N88D (1/15 clones). RFRR represents a mixture of resistant strains obtained by selection of RF against the compounds of Examples 1 and 2 and then cloning by three rounds of growth at limiting dilution. RFRR comprises a mixture of viral strains having protease genotypes of G48V, 154T, L63P, V82A (7/9 clones); G48V, 154T, L63P, V82A, N88S (1/9 clones); and G48V, 154T, L63P, G73M, V82A (1/9 clones). SF162 represents the HIV-1 strain SF-162 and SF162R represents a mixture of resistant strains obtained by selection of SF162 against the compound of Example 1. SF162R comprises a mixture of viral strains having protease genotypes of M461, F53L, L63P, A71V, N88D (2/3 clones); and M46I, F53L, L63P, A71V, N88D, Q92R (1/3 clones). 89-959 represents the HIV-1 strain 89-959 and 89-959R represents a mixture of resistant strains obtained by selection of 89-959 against the compound of Example 2. 89-959R comprises a mixture of viral strains having protease genotypes of N88S (4/5 clones); and D25N, T26A, D30N, D37N, R41K, G73D, R87K, N88S (1/4 clones). NL4 represents the HIV-1 strain HIV-1NL4-3. NL4(G48V) represents a strain having a synthetically generated site-directed mutation in the protease from glycine to valine at amino acid position number 48. NL4(I84V) represents a strain having a synthetically generated site-directed mutation in the protease from isoleucine to valine at amino acid position number 84. NL4(R8Q,M46I) represents a strain having synthetically generated site-directed mutations in the protease from arginine to glutamine at amino acid position number 8 and methionine to isoleucine at amino acid position number 46. NL4(P22-538) represents a mixture of resistant strains obtained by selection of HIV-1NL4-3 against the compound of Example 10 after 22 passages comprising protease genotypes M46I, L63P, A71V, V82F, I84V (4/10); M46I, L63P, V82F, I84V (3/10); and M46I, A71V, V82F, I84V (3/10). NL4(P37-538) represents resistant strains obtained by selection of HIV-1NL4-3 against the compound of Example 10 after 37 passages comprising protease genotype M46I, L63P, A71V, 184A. NL4(538/524) represents resistant strains obtained by selection of NL4(P22-538) against the compound of Example 5 after 24 passages comprising protease genotype M46I, L63P, A71V, 184A. NL4(538/P7-AG) represents a mixture of resistant strains obtained by selection of NL4(P22-538) against the compound of Example 12 after 7 passages comprising protease genotypes M46I, L63P, A71V, 184A; and V321, V82I. NL4(538/P24-AG) represents resistant strains obtained by selection of NL4(P22-538) against the compound of Example 12 after 24 passages comprising protease genotype M46I, L63P, A71V, 184A. […]

NL4(538/524) = test: Viral isolate resistance assay per Markowitz et al., NL4(538/524); format: cell-based, HIV-1; conditions: Human immunodeficiency virus 1; Table 10; NL4(P22-538) selected against Example 5, 24 passages
From the text: as §1

NL4(P37-538) = test: Viral isolate resistance assay per Markowitz et al., NL4(P37-538); format: cell-based, HIV-1; conditions: Human immunodeficiency virus 1; Table 9; selected against Example 10, 37 passages; read-out: Virus Isolate (EC50 nM) NL4(P37-538)
From the text: RF represents the HIV-1 strain HIV-LRF and RFR represents a mixture of resistant strains obtained by selection of RF against the compound of Example 1. RFR comprises a mixture of viral strains having protease genotypes of G48V (14/40 clones); G48V, V82A (18/40 clones); G48V, L90S (2/40 clones); G48V, 154T, V82A (1/40 clones); G48M (1/40 clones); G48V, Q61H (1/40 clones); V13I, G48V (1/40 clones); G48V, F53L, V82A (1/40 clones); and G48V, V82A, C95Y (1/40 clones). RFR2 represents a mixture of resistant strains obtained by cloning RFR by three rounds of growth at limiting dilution. RFR2 comprises a mixture of viral strains having protease genotypes of G48V, V82A (13/15 clones); G17E, G48V, V82A (1/15 clones); and G48V, V82A, N37D, N88D (1/15 clones). RFRR represents a mixture of resistant strains obtained by selection of RF against the compounds of Examples 1 and 2 and then cloning by three rounds of growth at limiting dilution. RFRR comprises a mixture of viral strains having protease genotypes of G48V, 154T, L63P, V82A (7/9 clones); G48V, 154T, L63P, V82A, N88S (1/9 clones); and G48V, 154T, L63P, G73M, V82A (1/9 clones). SF162 represents the HIV-1 strain SF-162 and SF162R represents a mixture of resistant strains obtained by selection of SF162 against the compound of Example 1. SF162R comprises a mixture of viral strains having protease genotypes of M461, F53L, L63P, A71V, N88D (2/3 clones); and M46I, F53L, L63P, A71V, N88D, Q92R (1/3 clones). 89-959 represents the HIV-1 strain 89-959 and 89-959R represents a mixture of resistant strains obtained by selection of 89-959 against the compound of Example 2. 89-959R comprises a mixture of viral strains having protease genotypes of N88S (4/5 clones); and D25N, T26A, D30N, D37N, R41K, G73D, R87K, N88S (1/4 clones). NL4 represents the HIV-1 strain HIV-1NL4-3. NL4(G48V) represents a strain having a synthetically generated site-directed mutation in the protease from glycine to valine at amino acid position number 48. NL4(I84V) represents a strain having a synthetically generated site-directed mutation in the protease from isoleucine to valine at amino acid position number 84. NL4(R8Q,M46I) represents a strain having synthetically generated site-directed mutations in the protease from arginine to glutamine at amino acid position number 8 and methionine to isoleucine at amino acid position number 46. NL4(P22-538) represents a mixture of resistant strains obtained by selection of HIV-1NL4-3 against the compound of Example 10 after 22 passages comprising protease genotypes M46I, L63P, A71V, V82F, I84V (4/10); M46I, L63P, V82F, I84V (3/10); and M46I, A71V, V82F, I84V (3/10). NL4(P37-538) represents resistant strains obtained by selection of HIV-1NL4-3 against the compound of Example 10 after 37 passages comprising protease genotype M46I, L63P, A71V, 184A. NL4(538/524) represents resistant strains obtained by selection of NL4(P22-538) against the compound of Example 5 after 24 passages comprising protease genotype M46I, L63P, A71V, 184A. NL4(538/P7-AG) represents a mixture of resistant strains obtained by selection of NL4(P22-538) against the compound of Example 12 after 7 passages comprising protease genotypes M46I, L63P, A71V, 184A; and V321, V82I. NL4(538/P24-AG) represents resistant strains obtained by selection of NL4(P22-538) against the compound of Example 12 after 24 passages comprising protease genotype M46I, L63P, A71V, 184A. NLA(P19-003) represents resistant strains obtained by selection of HIV-1^NL4-3 against the compound of Example 9 after 19 passages comprising protease genotype R8K, M46I. NL4(P34-003) represents resistant strains obtained by selection of HIV-1^NL4-3 against the compound of Example 9 after 34 passages comprising protease genotype R8K, M46I, L63P, A71V, L90M.
The viral isolate resistance results summarized in Tables 7-11 were generated according to the assay procedures described by Markowitz et al., Journal of Virology, vol. […]

NL4(G48V) = test: Viral isolate resistance assay per Markowitz et al., NL4(G48V); format: cell-based, HIV-1; conditions: Human immunodeficiency virus 1, Table 7
From the text: (§2) RF represents the HIV-1 strain HIV-LRF and RFR represents a mixture of resistant strains obtained by selection of RF against the compound of Example 1. […] RFR2 represents a mixture of resistant strains obtained by cloning RFR by three rounds of growth at limiting dilution. […] RFRR represents a mixture of resistant strains obtained by selection of RF against the compounds of Examples 1 and 2 and then cloning by three rounds of growth at limiting dilution. […] SF162 represents the HIV-1 strain SF-162 and SF162R represents a mixture of resistant strains obtained by selection of SF162 against the compound of Example 1. […] 89-959 represents the HIV-1 strain 89-959 and 89-959R represents a mixture of resistant strains obtained by selection of 89-959 against the compound of Example 2. […] NL4 represents the HIV-1 strain HIV-1NL4-3. NL4(G48V) represents a strain having a synthetically generated site-directed mutation in the protease from glycine to valine at amino acid position number 48. NL4(I84V) represents a strain having a synthetically generated site-directed mutation in the protease from isoleucine to valine at amino acid position number 84. NL4(R8Q,M46I) represents a strain having synthetically generated site-directed mutations in the protease from arginine to glutamine at amino acid position number 8 and methionine to isoleucine at amino acid position number 46.

NL4(I84V) = test: Viral isolate resistance assay per Markowitz et al., NL4(I84V); format: cell-based, HIV-1; conditions: Human immunodeficiency virus 1, Table 7
From the text: as §2

HIV-1NL4-3 = test: microbe, parasite or virus in culture; format: cell-based; conditions: for EC50: Table 8, read-out: Virus Isolate (EC50 nM) NL4
From the text: as §2

[1] = Human immunodeficiency virus 1, NL4

## CC(C)(C)NC(=O)[C@@H]1CN(Cc2cccnc2)CCN1C[C@@H](O)C[C@@H](Cc1ccccc1)C(=O)N[C@H]1c2ccccc2C[C@H]1O [Example 5, N-(2(R)-Hydroxy-1(S)-indanyl)-2(R)-phenylmethyl-4(S)-hydroxy-5-(1-(4-(3-pyridylmethyl)-2(S)-N′-(t-butylcarboxamido)-piperazinyl))-pentaneamide]
NL4(538/P7-AG)
  EC50: 6400 nM
NL4(538/524)
  EC50: 6400 nM
NL4(P37-538)
  EC50: 6400 nM
NL4(G48V)
  EC90: 160 nM
NL4(I84V)
  EC90: 640 nM
HIV-1NL4-3; Human immunodeficiency virus 1, read-out: Virus Isolate (EC90 nM) NL4
  EC90: 80 nM
HIV-1NL4-3; [1]
  EC50: 80 nM

## CC(C)(C)NC(=O)[C@@H]1CC2CCCC[C@@H]2CN1C[C@@H](O)[C@H](Cc1ccccc1)NC(=O)[C@H](CC(N)=O)NC(=O)c1ccc2ccccc2n1 (stereo in doubt) [Example 6, N-tert-Butyl decahydro-2-[2(R)-hydroxy-4-phenyl-3(S)-[[N-(2-quinolylcarbonyl)-L-asparaginyl]amino]butyl]-(4aR,8aS)-isoquinoline-3(S)-carboxamide]
NL4(538/P7-AG)
  EC50: 2400 nM
NL4(538/524)
  EC50: 2400 nM
NL4(P37-538)
  EC50: 2400 nM
NL4(G48V)
  EC90: 150 nM
NL4(I84V)
  EC90: 90 nM
HIV-1NL4-3; Human immunodeficiency virus 1, Table 7, EC90, NL4, read-out: Virus Isolate (EC90 nM) NL4
  EC90: 30 nM
HIV-1NL4-3; [1]
  EC50: 30 nM
